The experiment concerns A549 cells. Kind of experiment: In vitro toxicity analysis, viability after 3 days of treatment. It is filed as cell-based. Conditions: incubated with treatment for 3 days. The procedure:
Scale bar=200 nm. […] Cells were incubated with treatment for 5 days, and viability was assessed. […] Right lower panel: In vitro toxicity analysis of PGC-Cisplatin and cisplatin alone in A549 cells. Cells were incubated with treatment for 3 days, and viability was assessed.
PGC-Pax and PGC-Cisplatin nanoparticles are synthesized using a miniemulsion technique. Briefly, the polymer is added to dichloromethane, and the organic phase is dispersed via sonication into an aqueous phase, containing sodium dodecyl sulfate as a surfactant.

Consider `N.N.[Cl][Pt][Cl]` [cisplatin], for which the IC50 turned out to be 0.9273 µg/mL.

In general, IC50 refers to the concentration that gives 50% inhibition. A high value points to weaker potency.

These data come from patent US10400064B2, “Glycerol-based polycarbonates” (TRUSTEES OF BOSTON UNIVERSITY, priority 2014, dated 2019).
